In PubChem BioAssay AID179 (DTP/NCI, 2004):
Activity calls are given as the source filed them.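 The calls were made as follows: active = compounds giving half or more protection of infected cells from virus-caused growth loss, again on retest; inactive = the rest.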 Where a SMILES comes first, the peptide text is derived from it. [ ]: non-standard residue; d: D form. Hpg = N[CH](C(=O)O)c1ccc(O)cc1

Test system: CEM cells HIV-1 protection, formazan growth assay
Experiment: NCI AIDS Antiviral Assay
Details: for IC50: measured here: growth of uninfected CEM cells
Method in brief: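 Screen of anti-HIV-1 activity in human CEM cells using a formazan-based growth measurement at five drug concentrations. Hits with 50% or greater protection were repeated, and confirmation required reproducible complete protection.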

C=C[C@@]1(C)CC2CC[C@]3(C)C(C)=CC(=O)CC3[C@]2(C)CC1O (some centres undefined)
EC50: > 200 µM | IC50: 107 µM

C=C(CS(=O)(=O)c1ccccc1)[P+](c1ccccc1)(c1ccccc1)c1ccccc1
outcome: inactive

Cc1c(O)c2ccccc2n(C)c1=O
EC50: > 200 µM | IC50: > 200 µM

Cn1[nH]cc2ccc3nc4ccccc4c(=O)c3c21
outcome: inactive

N[C@@H](Cc1ccccc1)C(=O)N1CCC[C@@H]1P(=O)(Oc1ccccc1)Oc1ccccc1
outcome: inactive

C/C=C/C=Nc1c(C#N)c2n(c1C(=O)Nc1ccc(OC)cc1)CCC2
EC50: > 200 µM | IC50: > 200 µM

C[N+]12CCCCC1CC2 (centres undefined)
EC50: 47.9 µM | IC50: 355 µM

CC12CC3CC(C)(C1)CC(CN=C(N)CS)(C3)C2
EC50: > 200 µM | IC50: 31.6 µM

O=[N+]([O-])c1cccc(-c2ncc3c(n2)-c2ccccc2C3)c1
outcome: inactive

O=C(CO)CC(=O)C(=O)Nc1cccc(C(F)(F)F)c1
outcome: inactive

CCc1cc(-c2cccc3ccccc23)c(C#N)c(=S)n1C1OC(CO)C(O)C(O)C1O (centres undefined)
EC50: > 200 µM | IC50: 61.7 µM

Cc1cc(NC2=CC(=O)C(=O)c3ccccc32)no1
EC50: > 200 µM | IC50: 5.89 µM

Cc1cccc(C)c1NC(=O)CCC(=O)NNc1nnc(C)n1N
EC50: > 398 µM | IC50: > 398 µM

O=c1c2cn[nH]c2nc2scc(-c3ccc(Cl)cc3)n12
EC50: > 200 µM | IC50: > 200 µM

O=c1oc2c(ccc3nc(-c4ccccc4)sc32)c(N2CCOCC2)c1Cl
outcome: inactive

C[C@]12CC[C@@H]3c4cc(Br)c(O)c(Br)c4CC[C@H]3[C@@H]1CC(Br)C2=O (some centres undefined)
EC50: > 200 µM | IC50: 3.47 µM

Cc1cn(C2CC(N=[N+]=[N-])C(COC(=O)CCCCCCCCCCCN=[N+]=[N-])O2)c(=O)[nH]c1=O (centres undefined)
EC50: 0.0372 µM | IC50: 182 µM

C=CCNC(=S)N/C=C\c1c(C(=O)O)cc([N+](=O)[O-])cc1[N+](=O)[O-]
EC50: > 200 µM | IC50: > 100 µM

N#Cc1c2c(c(Cl)n3c1nc1ccccc13)CCCC2
EC50: > 3.72 µM | IC50: > 3.72 µM

O=S1(=O)CC(c2ccccc2)(c2ccccc2)Nc2ccccc21
EC50: > 200 µM | IC50: > 100 µM

Cc1ccccc1-n1c(=O)c2ncn(C3CCCO3)c2n(-c2ccccc2C)c1=S (centres undefined)
EC50: > 200 µM | IC50: > 200 µM

CCC1Oc2c(CC=C(C)C)c(OC(C)=O)c(C(OC(C)=O)C(C)CC)c3oc(=O)cc1c23 (centres undefined)
EC50: > 200 µM | IC50: 95.5 µM

NC(CCC(=O)NC(CS(=O)(=O)O)C(=O)O)C(=O)O (centres undefined)
EC50: > 603 µM | IC50: > 603 µM

CCOC(=O)C(=O)/C(=C/n1c(=S)[nH]c2cc(C)ccc21)C(=O)OCC
EC50: > 200 µM | IC50: > 200 µM

Cn1c2ccccc2c(=NNc2ccc(S(=O)(=O)N=C(N)N)cc2)c2ccccc21
EC50: > 200 µM | IC50: 5.5 µM

CC(C)CC(N)C(=O)NC(C(N)=O)c1ccc(O)cc1 (centres undefined) (H-Leu-[Hpg]-NH2; configuration not given here)
EC50: > 200 µM | IC50: > 200 µM

NC(CSCCSCCSCC(N)C(=O)O)C(=O)O (centres undefined)
EC50: > 56.2 µM | IC50: > 56.2 µM

CC(=O)OC(Cc1cc(C=C(C(F)(F)F)C(F)(F)F)cc(C)n1)(C(F)(F)F)C(F)(F)F
EC50: > 200 µM | IC50: 0.955 µM

Cc1ccc(S(=O)(=O)c2[nH]cc(/C(=C\C3CCCCC3)[N+](=O)[O-])c2C2CCCCC2)cc1
EC50: > 2 µM | IC50: 1.15 µM

CC(C)(C)C(=CS(=O)/N=C/c1ccccc1)C(C)(C)C (centres undefined)
EC50: > 24.5 µM | IC50: > 24.5 µM

OCC12CCCC(CO)(COC1)C2O (centres undefined)
EC50: > 200 µM | IC50: > 200 µM

CCC(C)C(NC(=O)C(NC(=O)C(CC(N)=O)NC(=O)CN)C(C)O)C(=O)NC(C(=O)NC(C)C(=O)NC(C(=O)NC(CCC(=O)O)C(=O)NC(CC(C)C)C(=O)NC(CC(=O)O)C(=O)NC(C(=O)NC(Cc1ccc(O)cc1)C(=O)N1CCCC1C(=O)O)C(C)O)C(C)C)C(C)C (centres undefined) (H-GNTIVAVELDTYP-OH; configuration not given here)
EC50: 30.9 µM | IC50: 50.1 µM

Cn1c(=O)n2c(-c3ccccc3)c(-c3ccccc3)n2c1=O
EC50: > 200 µM | IC50: 102 µM

CC(=O)NS(=O)(=O)c1ccc(NC(=O)COC(=O)c2cccc3c(=O)c4ccccc4[nH]c23)cc1
EC50: > 363 µM | IC50: 245 µM

CCOC(=O)C1C/C(=N\OC(C)=O)c2ccc(OC)c(OC)c2C1 (centres undefined)
outcome: inactive

CCOC(=O)C(OCC1CC=CCC1)Sc1ccccc1 (centres undefined)
EC50: > 23.4 µM | IC50: > 23.4 µM

CC1(C)[C@@H]2C[C@H]1c1cnc(-c3ccccn3)cc1[C@H]2C(O)[C@@H]1c2cc(-c3ccccn3)ncc2[C@H]2C[C@@H]1C2(C)C (some centres undefined)
EC50: > 5.01 µM | IC50: 0.295 µM

O=C1c2c(O)cccc2C(C(=O)CCCCCC(=O)C2c3cccc(O)c3C(=O)c3c(O)cccc32)c2cccc(O)c21
EC50: > 6.61 µM | IC50: 6.17 µM

CN1CCN(C(=S)N(C)C(=O)c2ccc(Cl)cc2)CC1
EC50: > 794 µM | IC50: 389 µM

COc1ccc(Nc2nc3ccc(C(F)(F)F)cc3nc2-c2ccccc2)cc1OC
EC50: > 17 µM | IC50: > 17 µM

CC(=O)Nc1nnc(SSc2nnc(NC(C)=O)s2)s1
EC50: 36.3 µM | IC50: 186 µM

Cc1cc(=O)oc2c(CNC(CC(C)C)C(=O)O)c(O)ccc12 (centres undefined)
EC50: > 200 µM | IC50: > 200 µM

OC1CCC(COC(c2ccccc2)(c2ccccc2)c2ccccc2)O1 (centres undefined)
EC50: > 200 µM | IC50: 24.5 µM

COC(=O)C1CCN(C(=O)OC(C)(C)C)CC1
EC50: > 200 µM | IC50: > 200 µM

CCCCCCCCOP(=O)(O)OP(=O)(O)OCC1OC(n2ccc(N)nc2=O)C(O)C1O (centres undefined)
EC50: > 200 µM | IC50: > 200 µM

COc1ccc2nc3cccc([N+](=O)[O-])c3c(NC(C)CN(C)C)c2c1 (centres undefined)
EC50: > 20 µM | IC50: 2.29 µM

COC(=O)/C=C(/C)n1nc2ccccc2n1
EC50: > 200 µM | IC50: > 200 µM

O=C(CCc1cccc(O)c1)NCCc1cccc(O)c1
EC50: > 200 µM | IC50: > 200 µM

CCOC(=O)/C=C\SCC(N)C(=O)O (centres undefined)
EC50: > 575 µM | IC50: 309 µM

Cc1ccc(CC(Cc2ccc(C)cc2C(=O)O)C(=O)O)cc1 (centres undefined)
EC50: > 200 µM | IC50: > 200 µM

CNC1(C#N)CCN(Cc2ccccc2)CC1
EC50: > 200 µM | IC50: > 200 µM

CCCCCCCCOC1N(C2CC(N=[N+]=[N-])C(CO)O2)C(=O)NC(=O)[C@]1(C)Cl (some centres undefined)
EC50: > 200 µM | IC50: 37.2 µM

CN1CCN(CCC=C2c3ccccc3Sc3ccc(S(=O)(=O)N(C)C)cc32)CC1
EC50: > 200 µM | IC50: 11.7 µM

O/N=C1/COC(C(F)(F)F)(C(F)(F)F)C1
EC50: > 200 µM | IC50: > 200 µM

O=C(Nc1ccc(C2=NCCN2)cc1)c1ccc(C(=O)Nc2ccc(C3=NCCN3)cc2)c(Cl)c1
EC50: > 200 µM | IC50: 49 µM

O=C(NNC(=S)NCc1ccccc1)C12CC3CC(CC(C3)C1)C2
EC50: > 200 µM | IC50: 25.1 µM

CNC(C)(C)C(SSSC(c1ccc(Cl)cc1)C(C)(C)NC)c1ccc(Cl)cc1 (centres undefined)
EC50: > 200 µM | IC50: 3.55 µM

S=C(Nc1ccccc1)Nc1ccccc1SC(/C=C/NNC1=NC(c2ccccc2)C(c2ccccc2)=NN1)c1ccccc1 (centres undefined)
EC50: > 15.5 µM | IC50: > 15.5 µM

O=c1c2ccccc2c(=O)c2c1cc(Cl)c1[nH]c3c([nH]c12)c(Cl)cc1c(=O)c2ccccc2c(=O)c13
EC50: > 7.41 µM | IC50: > 7.41 µM

COC(=O)c1nc2c(C)c(O)c(Oc3c(C)c(O)c(O)c([C@H](C)CCC=C(C)C)c3O)c([C@H](C)CCC=C(C)C)c2o1
EC50: > 200 µM | IC50: 7.94 µM

COc1ccc(-c2cc3ccccc3oc2=O)cc1OC
EC50: > 200 µM | IC50: 41.7 µM

Cc1nc(N)nc(N)c1CCCCc1ccccc1
outcome: inactive

Cc1cc(N=Nc2ccc(C(=O)Nc3ccc4cc(S(=O)(=O)O)ccc4c3)cc2)c(N)c(N=Nc2ccc(N=Nc3ccc(O)c(C(=O)O)c3)cc2)c1N
EC50: 14.8 µM | IC50: > 100 µM

CN(C)C1=Nc2ccccc2C(=S)N2CSCC12 (centres undefined)
EC50: > 200 µM | IC50: 29.5 µM

CC1(C)COC(c2cccc(C3=NC(C)(C)CO3)c2)=N1
EC50: > 200 µM | IC50: > 200 µM

CCC1=C(CC)C1(C#N)[N+](=O)[O-]
EC50: > 251 µM | IC50: > 251 µM

CCCCNC(=O)/C(=C/c1cccc(N(CC)CC)c1)NC(=O)c1ccccc1
EC50: > 200 µM | IC50: 25.1 µM

CCOC(=O)CC1(C(=O)OCC)c2[nH]c3ccccc3c2CCN1Cc1ccccc1 (centres undefined)
EC50: > 69.2 µM | IC50: 17.4 µM

COc1ccc2[nH]c3c(C)c4ccnc(NCCCN(C)CCCNc5ccc6ncn7c8ccccc8c(=O)c5c67)c4c(C)c3c2c1
EC50: > 0.0251 µM | IC50: 0.00794 µM

Cc1ccc(S(=O)(=O)NC(=O)n2ccnc2C)cc1
EC50: > 891 µM

c1cc(C[N+]23CN4CN(CN(C4)C2)C3)cs1
outcome: inactive

COc1ccc(C2=C(OC(=O)N(C)C)c3cccn3-c3cc(C(F)(F)F)ccc3S2)cc1
EC50: > 200 µM | IC50: > 200 µM

CC(C)(C)OC(=O)c1ccc(NCc2cc(O)ccc2O)cc1
EC50: > 200 µM | IC50: 3.16 µM

Cc1ccccc1NC(=O)C(=O)C(C#N)c1ccc(Cl)cc1 (centres undefined)
EC50: > 12 µM | IC50: > 12 µM

CC(C)=CCC/C(=C/CC/C(C)=C/CCc1ccoc1)C(=O)O
EC50: > 295 µM | IC50: 107 µM

CCCCC(=O)N1C(=O)/C(=C\N(C)C)c2cc(C=O)ccc21
EC50: > 200 µM | IC50: 29.5 µM

C/C(O)=C(/C=N/C(=S)Nc1ccc(S(N)(=O)=O)cc1)C(=O)Nc1ccccc1C
EC50: > 200 µM | IC50: > 200 µM

CSC(=S)N/N=C/c1nccc2ccccc12
outcome: inactive

NNC(=O)C(=O)NN=C(C(Cl)(Cl)CO)C(Cl)(Cl)CO
EC50: > 20.4 µM | IC50: > 20.4 µM

CN(C)CCNC(=O)c1cccc(CO)c1[N+](=O)[O-]
EC50: > 200 µM | IC50: > 200 µM

OC(c1ccccc1)C(F)(F)c1nc2ccccc2o1 (centres undefined)
EC50: > 200 µM | IC50: > 200 µM

CC(C)SC(NC(=O)C1C(C)(C)CCC1(C)C)C(=O)O (centres undefined)
EC50: > 200 µM | IC50: > 200 µM

O=c1c2ccccc2c(=O)n2n1C1C=CC2C1
EC50: > 44.7 µM | IC50: > 44.7 µM

O=C1CN(CCN2CCCCC2)CC(=O)N2CCCCN12
EC50: > 200 µM | IC50: > 200 µM

COc1cc(Nc2c3ccccc3nc3ccccc23)ccc1NS(C)(=O)=O
EC50: > 200 µM | IC50: 2.4 µM
